In US5385947A, “Octahydrophenanthrene derivatives” (Hoffmann-La Roche Inc., priority 1993, dated 1995):
Where a name gives a salt, the structure may show the parent alone.

Assays:
mouse = assay: Toxicity (lowest lethal dosage, LLD) in the mouse, p.o.; format: in vivo
Source text: (§1) The thus-determined activity of some compounds in accordance with the invention will be evident from the IC50 values set forth in the following Table; moreover, the Table contains data concerning their toxicity (lowest lethal dosage=LLD in the mouse, p.o.).

[1] = target: specific binding sites of dizocilpine ([3H]-MK801) in the rat cortex; assay: 3H-MK801 (dizocilpine) binding test: inhibition of the binding of dizocilpine to the specific binding sites in rat cortex; settings: 50 percent inhibition of specific binding of dizocilpine
Method: The pharmacological activity of some compounds in accordance with the invention and of rac-cis-4b-(2-amino-ethyl)4b,5,6,7,8,8a,9,10-octahydro-phenanthren-8a-ol was determined in vitro according to the method described in Europ. J. Pharmacol. 135, 261 (1987). According to this method [namely the 3H-MK801 (dizocilpine) binding test] the inhibition of the binding of dizocilpine to the specific binding sites in rat cortex by the respective test substances is determined. The IC50 ("50% inhibiting concentration") is that concentration of the respective test substance which brings about a 50 percent inhibition of the specific binding of dizocilpine to the specific binding sites in the rat cortex.
as §1

| Structure (SMILES) | Toxicity LLD (lowest lethal dosage) (mouse) | IC50 [1] |
| --- | --- | --- |
| Cl.NCC[C@@]12CCCC[C@]1(O)CCc1c(F)cc(Cl)cc12 (racemic) [rac-cis-4b-(2-Amino-ethyl)-3-chloro-1-fluoro-4b,5,6,7,8,8a,9,10-octahydro-phenanthren-8a-ol hydrochloride] | 1000 mg/kg | 107 nM |
| Cl.NCC[C@@]12CCCC[C@]1(O)CCc1ccc(Cl)cc12 (racemic) [rac-cis-4b-(2-Amino-ethyl)-3-chloro-4b,5,6,7,8,8a,9,10-octahydro-phenanthren-8a-ol hydrochloride] | 500 mg/kg | 84.7 nM |
| Cl.NCC[C@@]12CCCC[C@]1(O)CCc1ccccc12 (racemic) [rac-cis-4b-(2-Amino-ethyl)-4b,5,6,7,8,8a,9,10-octahydro-phenanthren-8a-ol hydrochloride] | 250 mg/kg | 93 nM |
| Cl.NCC[C@@]12CCCC[C@]1(O)CCc1ccc(O)cc12 (racemic) [rac-cis-4b-(2-Amino-ethyl)-4b,5,6,7,8,8a,9,10-octahydro-phenanthrene-3,8a-diol hydrochloride] | 1000 mg/kg | 73.4 nM |
| CN(C)CC[C@@]12CCCC[C@]1(O)CCc1ccccc12 (racemic) [rac-cis-4b-(2-Dimethylamino-ethyl)-4b,5,6,7,8,8a,9,10-octahydro-phenanthren-8a-ol hydrochloride] | – | 453 nM |
| CN(C)CC[C@@]12CCCC[C@]1(O)CCc1ccc(Cl)cc12.Cl (single isomer, unassigned) [(-)-cis-3-Chloro-4b-(2-dimethylamino-ethyl)-4b,5,6,7,8,8a,9,10-octahydro-phenanthren-8a-ol hydrochloride] | 375 mg/kg | 254 nM |
